Each compound was assayed against recombinant human CL receptor/RAMP1 (Homo sapiens (Human), UniProt O60894+Q16602) (assay: recombinant receptor binding assay (125I-hCGRP displacement)). Details: membranes of HEK 293 cells expressing human CL receptor/RAMP1, 10 pM 125I-hCGRP.
Protocol: RECOMBINANT RECEPTOR: Human CL receptor (Genbank accession number L76380) was subcloned into the expression vector pIREShyg2 (BD Biosciences Clontech) as a 5′NheI and 3′ PmeI fragment. Human RAMP1 (Genbank accession number AJ001014) was subcloned into the expression vector pIRESpuro2 (BD Biosciences Clontech) as a 5′NheI and 3′NotI fragment. HEK 293 cells (human embryonic kidney cells; ATCC #CRL-1573) were cultured in DMEM with 4.5 g/L glucose, 1 mM sodium pyruvate and 2 mM glutamine supplemented with 10% fetal bovine serum (FBS), 100 units/mL penicillin and 100 μg/mL streptomycin, and maintained at 37° C. and 95% humidity. Cells were subcultured by treatment with 0.25% trypsin with 0.1% EDTA in HBSS. Stable cell line generation was accomplished by co-transfecting 10 μg of DNA with 30 ug Lipofectamine 2000 (Invitrogen) in 75 cm^2 flasks. CL receptor and RAMP1 expression constructs were co-transfected in equal amounts. Twenty-four hours after transfection the cells were diluted and selective medium (growth medium+300 μg/mL hygromycin and 1 μg/mL puromycin) was added the following day. A clonal cell line was generated by single cell deposition utilizing a FACS Vantage SE (Becton Dickinson). Growth medium was adjusted to 150 μg/mL hygromycin and 0.5 μg/mL puromycin for cell propagation.
RECOMBINANT RECEPTOR BINDING ASSAY: Cells expressing recombinant human CL receptor/RAMP1 were washed with PBS and harvested in harvest buffer containing 50 mM HEPES, 1 mM EDTA and Complete protease inhibitors (Roche). The cell suspension was disrupted with a laboratory homogenizer and centrifuged at 48,000 g to isolate membranes. The pellets were resuspended in harvest buffer plus 250 mM sucrose and stored at—70° C. For binding assays, 20 μg of membranes were incubated in 1 ml binding buffer (10 mM HEPES, pH 7.4, 5 mM MgCl2, and 0.2% BSA) for 3 hours at room temperature containing 10 pM ^125I-hCGRP (GE Healthcare) and antagonist. The assay was terminated by filtration through 96-well GFB glass fiber filter plates (PerkinElmer) that had been blocked with 0.05% polyethyleneimine. The filters were washed 3 times with ice-cold assay buffer (10 mM HEPES, pH 7.4 and 5 mM MgCl2). Scintillation fluid was added and the plates were counted on a Topcount (Packard). Non-specific binding was determined and the data analysis was carried out with the apparent dissociation constant (Ki) determined by using a non-linear least squares fitting the bound CPM data to the equation below:
[formula] Where Y is observed CPM bound, Ymax is total bound counts, Ymin is non specific bound counts, (Ymax−Ymin) is specific bound counts, % Imax is the maximum percent inhibition, % I min is the minimum percent inhibition, radiolabel is the probe, and the Kd is the apparent dissociation constant for the radioligand for the receptor as determined by Hot saturation experiments.

Chain of recombinant human CL receptor/RAMP1 (Q16602 23-461): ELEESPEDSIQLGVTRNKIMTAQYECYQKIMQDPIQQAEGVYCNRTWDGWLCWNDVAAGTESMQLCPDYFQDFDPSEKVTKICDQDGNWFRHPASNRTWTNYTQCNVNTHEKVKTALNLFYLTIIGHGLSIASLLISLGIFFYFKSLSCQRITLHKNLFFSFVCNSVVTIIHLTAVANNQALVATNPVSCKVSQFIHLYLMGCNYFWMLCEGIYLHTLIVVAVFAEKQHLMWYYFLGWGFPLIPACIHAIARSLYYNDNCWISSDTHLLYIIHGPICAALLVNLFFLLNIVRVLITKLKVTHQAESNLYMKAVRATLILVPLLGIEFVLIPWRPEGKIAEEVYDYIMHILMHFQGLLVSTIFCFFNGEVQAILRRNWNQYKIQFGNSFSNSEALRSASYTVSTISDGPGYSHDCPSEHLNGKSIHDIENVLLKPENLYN
Chain of recombinant human CL receptor/RAMP1 (O60894 27-148): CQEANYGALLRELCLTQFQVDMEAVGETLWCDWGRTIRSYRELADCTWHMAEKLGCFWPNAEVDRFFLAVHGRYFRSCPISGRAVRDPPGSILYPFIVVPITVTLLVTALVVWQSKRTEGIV

Point of comparison: C[C@@]1(c2cc(F)cc(F)c2)CNC2(CCCC2)C(=O)N1CC(=O)Nc1ccc2c(c1)CC1(C2)N=C(c2ccccc2)NC1=O (some centres unmarked) [Example 13], Ki 1.6 nM. Against it:
- O=C(Cn1c(=O)n(-c2ccccn2)c2ccccc21)Nc1ccc2c(c1)CC1(C2)N=C(C2CC2)NC1=O (centres unmarked) [Example 3] — 1600-fold higher, 2600 nM
- O=C(Cn1c(=O)n(-c2ccccn2)c2ccccc21)Nc1ccc2c(c1)CC1(C2)N=C(c2ccccc2)NC1=O (centres unmarked) [Example 7] — 22-fold higher, 35 nM
- O=C(Cn1c(=O)n(-c2ccccn2)c2ccccc21)Nc1ccc2c(c1)CC1(C2)N=C(c2cccnc2)NC1=O (centres unmarked) [Example 8] — 81-fold higher, 130 nM
- O=C(Cn1c(=O)n(-c2nccs2)c2ccccc21)Nc1ccc2c(c1)CC1(C2)N=C(c2ccccc2)NC1=O (racemic) [Example 1, (±)-N-(5-oxo-2-phenyl-1,1′,3′,5-tetrahydrospiro[imidazole-4,2′-inden]-5′-yl)-2-[2-oxo-3-(1,3-thiazol-2-yl)-2,3-dihydro-1H-benzimidazol-1-yl]acetamide] — 16-fold higher, 25 nM
- O=C(CN1C(=O)C2(CCCC2)NC[C@H]1c1cc(F)cc(F)c1)Nc1ccc2c(c1)CC1(C2)N=C(c2ccccc2)NC1=O (single isomer, unassigned) [Example 12] — 18-fold higher, 29 nM
- O=C(Cn1c(=O)n(-c2ccccn2)c2ccccc21)Nc1ccc2c(c1)CC1(C2)N=C(c2ccncc2)NC1=O (centres unmarked) [Example 9] — 100-fold higher, 160 nM
- O=C(Cn1c(=O)n(-c2ccccn2)c2ccccc21)Nc1ccc2c(c1)CC1(C2)N=C(c2ccccn2)NC1=O (racemic) [Example 2, (±)-2-(2-oxo-3-pyridin-2-yl-2,3-dihydro-1H-benzimidazol-1-yl)-N-(5-oxo-2-pyridin-2-yl-1,1′,3′,5-tetrahydrospiro[imidazole-4,2′-inden]-5′-yl)acetamide] — 360-fold higher, 570 nM
- O=C(Cn1c(=O)n(-c2ccccn2)c2ccccc21)Nc1ccc2c(c1)CC1(C2)N=C(c2cnccn2)NC1=O (centres unmarked) [Example 6] — 390-fold higher, 630 nM
- O=C(CN1C(=O)C2(CCCC2)NC[C@H]1c1cc(F)cc(F)c1)Nc1ccc2c(c1)CC1(C2)N=C(c2ccccc2)NC1=O (single isomer, unassigned) [Example 11] — 7.6-fold lower, 0.21 nM
- CCCC1=NC2(Cc3ccc(NC(=O)Cn4c(=O)n(-c5ccccn5)c5ccccc54)cc3C2)C(=O)N1 (centres unmarked) [Example 4] — 4000-fold higher, 6400 nM

Reference: patent US8569291B2, “Bicyclic dihydroimidazolone CGRP receptor antagonists” (Merck Sharp & Dohme Corp., priority 2008, dated 2013)
